What was measured:
[1] = test system: Bacillus Subtilis (ATCC 9372)spores; assay: Sterilization of spores inoculated in cups with cross-linked porcine heart valve leaflets (Example 1); format: cell-based; conditions: EDC 25 mM, 50 mM and 70 mM, 100 mM ethanolamine, 20% isopropyl alcohol, HEPES pH 6.5, 40° C., after one day
Description: When porcine aortic roots that are fixed are employed, they are cross-linked according to the method described in U.S. Pat. No. 5,447,536 or glutaraldehyde-fixed or cross-linked or fixed with any other method used to preserve tissue. After fixation, the tissue is stored in 10 mM HEPES, 0.85% NaCl, 20% isopropyl alcohol, pH 7.4, at 4° C. The sterility tests described in the following examples are conducted in the presence of bovine pericardium or porcine heart valve tissue. After such tissue is inoculated with microorganisms for test purposes and then submitted to sterilization, the solution is filtered through a 0.45 micron filter attached to a funnel (filter funnel). The tissue is washed for 20 minutes in a reciprocating shaker in the presence of peptone water containing Tween 80 in order to extract all indigenous spores or microorganisms from the tissue. This solution is then filtered through the same respective filter. The filters are then rinsed with peptone water to eliminate residual chemicals on the membrane that may prevent growth of the organisms tested. The membrane filters are incubated on solid agar TSA plates (Millipore) at about 32° to 33° C., e.g. 32.5° C. All microbiological testing is performed in a biological laminar flow hood to prevent contamination. […]

spores Bacillus subtilis = assay: Sterilization efficacy of EDC with blocking agents, spores in glass ampoules (Example 3); format: cell-based; conditions: EDC in HEPES buffer containing 20% isopropyl alcohol, in the presence or absence of tissue
Description: EDC sterilization in HEPES buffer containing 20% isopropyl alcohol, carried out either in the presence or in the absence of tissue, leads to complete kill of the spores Bacillus subtilis. The following experiment was designed to test whether the sterilization efficacy of EDC remains substantially unaffected by the presence of […]. […] After 10 minutes, 10 mL of Solutions A, B, C, D, E and F containing 25 mM EDC were added, the ampoules were heat-sealed and placed at 40° C. After 24 hours, the solutions from the ampoules were filtered to recover the spores, the filters were washed with 0.1% peptone water, and these were incubated on TSA plates for up to 10 days at 32° C. to 33° C., after which the colonies were enumerated.

[2] = EDC sterilization of pretreated cross-linked porcine aortic root tissue without lower alkanol; conditions: tissue pretreated with acetic anhydride or a mixture of TRIS and isopropylamine; absence of a lower alkanol

Structure (SMILES): CCN=C=NCCCN(C)C.Cl [EDC, 1-ethyl-3(3-dimethylaminopropyl) carbodiimide hydrochloride]
- kill of spores [1]: complete kill
- kill of spores (spores Bacillus subtilis): complete kill
- sterilization of tissue samples [2]: effectively sterilized

Source: US6521179B1, “Sterilization” (Biomedical Design, Inc., priority 1999, dated 2003)
